# Measured values reported in patent US20220160739A1, “METHODS FOR TREATING SUBJECTS WITH CHRONIC KIDNEY DISEASE” (Janssen Pharmaceutica NV, priority 2019, published 2022).
# Experiments:
# [1] = test system: patients with type 2 diabetes mellitus (T2DM), Stage 2 or 3 chronic kidney disease (CKD) and macroalbuminuria; assay: Randomized, double-blind, placebo-controlled study of canagliflozin: safety and tolerability (adverse events); type: in vivo
# From the text: This was a randomized, double-blind, event-driven, placebo-controlled, parallel-group, 2-arm, multicenter study to evaluate the effects of canagliflozin relative to placebo on progression to doubling of serum creatinine, end-stage kidney disease (ESKD), renal or cardiovascular (CV) death in patients with type 2 diabetes mellitus (T2DM), Stage 2 or 3 chronic kidney disease (CKD) and macroalbuminuria, who were receiving standard of care including a maximum tolerated labeled daily dose of an angiotensin-converting enzyme inhibitor (ACEi) or angiotensin receptor blocker (ARB). […] The safety objective was to assess the overall safety and tolerability of canagliflozin. […]
# Treatment-emergent safety analyses and summaries were presented using the On-Treatment analysis set (i.e., all treated subjects through 30 days after last dose), whereas analyses of amputation, fracture, and malignancy were performed using the On-Study analysis set (i.e., all treated subjects through end of study).
# Safety analyses were performed using either the On-Treatment analysis set (treated subjects up to 30 days of last dose) or the On-Study analysis set (treated subjects through the end of study).
# [2] = test system: patients with type 2 diabetes mellitus (T2DM), Stage 2 or 3 chronic kidney disease (CKD) and macroalbuminuria; assay: Randomized, double-blind, placebo-controlled study of canagliflozin: efficacy (renal and CV endpoints, HbA1c, body weight, blood pressure); type: in vivo, human
# From the text: This was a randomized, double-blind, event-driven, placebo-controlled, parallel-group, 2-arm, multicenter study to evaluate the effects of canagliflozin relative to placebo on progression to doubling of serum creatinine, end-stage kidney disease (ESKD), renal or cardiovascular (CV) death in patients with type 2 diabetes mellitus (T2DM), Stage 2 or 3 chronic kidney disease (CKD) and macroalbuminuria, who were receiving standard of care including a maximum tolerated labeled daily dose of an angiotensin-converting enzyme inhibitor (ACEi) or angiotensin receptor blocker (ARB). […] The safety objective was to assess the overall safety and tolerability of canagliflozin.
# Randomization included a 1:1 ratio to canagliflozin 100 mg or matching placebo, stratified by screening estimated glomerular filtration rate (eGFR) [≥30 to less than 45, ≥45 to less than 60, ≥60 to less than 90 mL/min/1.73 m^2]. The primary efficacy composite endpoint was the time to the first occurrence of doubling of serum creatinine, ESKD, and renal or CV death. The major secondary efficacy endpoints (tested in the following hierarchical order) included: • Composite of CV death and hospitalized heart failure • Composite of CV death, non-fatal MI, and non-fatal stroke (i.e., 3-point “MACE”) • Hospitalized heart failure • Composite of doubling of serum creatinine, ESKD, and renal death • CV death • All-cause death • Composite of CV death, non-fatal MI, non-fatal stroke, hospitalized heart failure, and hospitalized unstable angina
# A planned interim analysis was conducted at 413 primary endpoints and the IDMC subsequently recommended to stop the study early for efficacy based on pre-specified stopping criteria.
# The primary analysis was performed in the Intent-To-Treat (ITT) analysis set (i.e., all randomized subjects through end of study) using a stratified Cox proportional hazard model including treatment as the explanatory variable and stratified by screening eGFR. Secondary endpoints were similarly analyzed.
# As a result of stopping at the interim analysis, the primary endpoint was tested at a two-sided significance level of 0.022 based on the alpha spending function, whereas secondary endpoints were tested at 0.038.
# Analyses were performed to assess the impact of adjusting for postbaseline measurements of HbA1c and systolic blood pressure in the primary efficacy analysis. A series of proportional hazard regression models which included postbaseline HbA1c and systolic blood pressure measurements as time-varying covariates were fit. Because changes in HbA1c have a delayed effect on cardiovascular risk, several models were constructed. In each model, HbA1c was evaluated first using the single coincident value, a single lagged value, and then as a running mean average value. Single coincident systolic blood pressure measurements were used for all analyses.
# [3] = Cox proportional hazards model, On-Study
# [4] = denominators restricted to females
# [5] = renal related AE by preferred term
# [6] = canagliflozin compared to placebo, ITT
# [7] = canagliflozin minus placebo, end of treatment
smiles,measurement,setting,value
Cc1ccc(C2OC(CO)C(O)C(O)C2O)cc1Cc1ccc(-c2ccc(F)cc2)s1 (stereo not drawn) [Canagliflozin],Adjudicated fracture: HR (vs. Placebo),[1]; [3],0.98
same,Atraumatic lower limb amputation: HR (vs. Placebo),[1]; [3],1.11
same,Final vital status: Alive n (%),"[1]; ITT analysis set, N = 2202",2030 (92.2)
same,Final vital status: Died n (%),"[1]; ITT analysis set, N = 2202",168 (7.6)
same,Adjudicated fracture: IRD (minus Placebo),[1]; On-Study,−0.29 /1000 subject-years
same,Adjudicated fracture: incidence rate,[1]; On-Study,11.80 /1000 subject-years
same,Adjudicated fracture: number of events,[1]; On-Study,80
same,Atraumatic lower limb amputation: IRD (minus Placebo),[1]; On-Study,1.16 /1000 subject-years
same,Atraumatic lower limb amputation: incidence rate,[1]; On-Study,12.34 /1000 subject-years
same,Atraumatic lower limb amputation: number of events,[1]; On-Study,87
same,Adjudicated fracture: subjects with any event (%),"[1]; On-Study, N = 2200",(3.0) %
same,Atraumatic lower limb amputation: subjects with any event (%),"[1]; On-Study, N = 2200",(3.2) %
same,Adverse Events Leading to Discontinuation N (%),"[1]; On-Treatment, N = 2200",267 (12.1)
same,Adverse Events Related to Study Drug N (%),"[1]; On-Treatment, N = 2200",469 (21.3)
same,Adverse Events Related to Study Drug and Leading to Discontinuation N (%),"[1]; On-Treatment, N = 2200",75 (3.4)
same,Any Adverse Events N (%),"[1]; On-Treatment, N = 2200",1784 (81.1)
same,Death (fatal adverse event) N (%),"[1]; On-Treatment, N = 2200",109 (5.0)
same,Renal related adverse events: total subjects with the AEs (%),"[1]; On-Treatment, N = 2200",(13.2) %
same,Serious Adverse Events Leading to Discontinuation N (%),"[1]; On-Treatment, N = 2200",134 (6.1)
same,Serious Adverse Events N (%),"[1]; On-Treatment, N = 2200",737 (33.5)
same,Serious Adverse Events Related to Study Drug N (%),"[1]; On-Treatment, N = 2200",62 (2.8)
same,Serious Adverse Events Related to Study Drug and Leading to Discontinuation N (%),"[1]; On-Treatment, N = 2200",16 (0.7)
same,Renal related adverse events: incidence rate,[1]; Table 8,57.12 per 1000 person-years
same,Overall incidence rate of neoplasms,[1]; between the treatment groups,low and balanced between the treatment groups
same,Adjudicated diabetic ketoacidosis (DKA) IRD,[1]; canagliflozin compared to placebo,"1.73 per 1,000 subject-years"
same,Adjudicated RCC incidence rate,[1]; canagliflozin group,0.17 per 1000 patient-years
same,Adjudicated renal cell carcinoma (RCC): subjects,[1]; canagliflozin group,1 subject
same,Adjudicated renal cell carcinoma (RCC): subjects (%),[1]; canagliflozin group,< 0.1%
same,Adverse event cited as reason for treatment discontinuation,[1]; canagliflozin group,12%
same,Female breast cancer incidence rate,[1]; canagliflozin group,4.08 per 1000 patient-years
same,Hyperkalemia adverse events incidence rate,[1]; canagliflozin group,"29.74 per 1,000 subject-years"
same,Renal-related adverse events: incidence rate,[1]; canagliflozin group,"57.12 per 1,000 subject-years"
same,Volume depletion adverse events incidence rate,[1]; canagliflozin group,"28.36 per 1,000 subject-years"
same,"Malignancy (Breast) IRD, Canagliflozin vs. Placebo",[1]; [4],2.49 /1000 subject years
same,Malignancy (Breast) n (%),[1]; [4],8 (1.1)
same,Malignancy (Breast) rate,[1]; [4],4.08 /1000 subject years
same,Adverse Events Leading to Discontinuation rate,[1]; exposure adjusted,52.59 /1000 pt-yrs
same,Adverse Events Related to Study Drug and Leading to Discontinuation rate,[1]; exposure adjusted,14.77 /1000 pt-yrs
same,Adverse Events Related to Study Drug rate,[1]; exposure adjusted,92.38 /1000 pt-yrs
same,Death (fatal adverse event) rate,[1]; exposure adjusted,21.47 /1000 pt-yrs
same,Serious Adverse Events Leading to Discontinuation rate,[1]; exposure adjusted,26.39 /1000 pt-yrs
same,Serious Adverse Events Related to Study Drug and Leading to Discontinuation rate,[1]; exposure adjusted,3.15 /1000 pt-yrs
same,Serious Adverse Events Related to Study Drug rate,[1]; exposure adjusted,12.21 /1000 pt-yrs
same,Serious Adverse Events rate,[1]; exposure adjusted,145.17 /1000 pt-yrs
same,Any Adverse Events rate,"[1]; exposure adjusted, On-Treatment",351.40 /1000 pt-yrs
same,Reports of pheochromocytoma or testicular cell cancer,[1]; in the study,no reports
same,"Malignancy (Bladder) IRD, Canagliflozin vs. Placebo",[1]; post-randomization,0.16 /1000 subject years
same,Malignancy (Bladder) rate,[1]; post-randomization,1.73 /1000 subject years
same,Malignancy (Bladder) n (%),"[1]; post-randomization, N = 2200",10 (0.5)
same,Acute kidney injury (%),[1]; [5],(3.9) %
same,Acute kidney injury n,[1]; [5],86
same,Anuria (%),[1]; [5],(<0.1) %
same,Anuria n,[1]; [5],1
same,Azotemia n,[1]; [5],0
same,Blood Creatinine increased (%),[1]; [5],(6.5) %
same,Blood Creatinine increased n,[1]; [5],144
same,Blood urea increased (%),[1]; [5],(1.0) %
same,Blood urea increased n,[1]; [5],21
same,Glomerular filtration rate decreased (%),[1]; [5],(3.1) %
same,Glomerular filtration rate decreased n,[1]; [5],68
same,Nephropathy toxic n,[1]; [5],0
same,Renal failure (%),[1]; [5],(0.5) %
same,Renal failure n,[1]; [5],10
same,Renal impairment (%),[1]; [5],(2.3) %
same,Renal impairment n,[1]; [5],50
same,HbA1c placebo-subtracted difference of LS means for change from baseline,[2]; 30-45 eGFR stratum,0.03
same,HbA1c placebo-subtracted difference of LS means for change from baseline,[2]; 45-60 eGFR stratum,−0.18
same,HbA1c placebo-subtracted difference of LS means for change from baseline,[2]; 60 to <90 eGFR stratum,−0.21
same,"Kaplan-Meier plot, primary composite endpoint: initial separation","[2]; FIG. 1, maintained across the entire study",52 Week
same,"Treatment HR for the primary efficacy outcome, adjusted for time-varying HbA1c and systolic blood pressure",[2]; HbA1c Concurrent in the Cox model,0.724
same,"Treatment HR for the primary efficacy outcome, adjusted for time-varying HbA1c and systolic blood pressure",[2]; HbA1c Lagged By 1 Visit,0.737
same,"Treatment HR for the primary efficacy outcome, adjusted for time-varying HbA1c and systolic blood pressure",[2]; HbA1c Running Mean,0.740
same,All-Cause Mortality (%),[2]; ITT,(7.6) %
same,All-Cause Mortality EVRT,[2]; ITT,29.04 per 1000 patient-years
same,All-Cause Mortality n/N,[2]; ITT,168/2202
same,Composite of CV Death/NFMI/NF Stroke/HHF/HUSA (%),[2]; ITT,(12.4) %
same,Composite of CV Death/NFMI/NF Stroke/HHF/HUSA EVRT,[2]; ITT,49.35 per 1000 patient-years
same,Composite of CV Death/NFMI/NF Stroke/HHF/HUSA n/N,[2]; ITT,273/2202
same,Composite of DoSC/ESKD/Renal Death (%),[2]; ITT,(6.9) %
same,Composite of DoSC/ESKD/Renal Death EVRT,[2]; ITT,26.99 per 1000 patient-years
same,Composite of DoSC/ESKD/Renal Death n/N,[2]; ITT,153/2202
same,HHF (%),[2]; ITT,(4.0) %
same,HHF (hospitalized heart failure) n/N,[2]; ITT,89/2202
same,HHF EVRT,[2]; ITT,15.65 per 1000 patient-years
same,MACE (%),[2]; ITT,(9.9) %
same,MACE EVRT,[2]; ITT,38.71 per 1000 patient-years
same,MACE n/N,"[2]; ITT, CV death, non-fatal MI, non-fatal stroke",217/2202
same,Composite of CV Death/HHF (%),"[2]; ITT, canagliflozin 100 mg",(8.1) %
same,Composite of CV Death/HHF EVRT,"[2]; ITT, canagliflozin 100 mg",31.47 per 1000 patient-years
same,Composite of CV Death/HHF n/N,"[2]; ITT, canagliflozin 100 mg",179/2202
same,Doubling of Serum Creatinine EVRT,"[2]; ITT, canagliflozin 100 mg",20.73 per 1000 patient-years
same,ESKD EVRT,"[2]; ITT, canagliflozin 100 mg",20.37 per 1000 patient-years
same,Primary Composite Endpoint EVRT (event rate),"[2]; ITT, canagliflozin 100 mg",43.21 per 1000 patient-years
same,Renal Death EVRT,"[2]; ITT, canagliflozin 100 mg",0.35 per 1000 patient-years
same,"Primary composite endpoint HR, supportive analysis","[2]; On-Treatment analysis set, vs placebo",0.64
same,Doubling of Serum Creatinine HR (95% CI),[2]; [6],"0.60 (0.48, 0.76)"
same,ESKD HR (95% CI),[2]; [6],"0.68 (0.54, 0.86)"
same,"Body weight least-squares mean difference, change from baseline",[2]; [7],−1.72%
same,"HbA1c least-squares mean difference, change from baseline",[2]; [7],−0.13%
same,"Systolic blood pressure least-squares mean difference, change from baseline",[2]; [7],−2.81 mmHg
same,Reduction of risk of the primary composite endpoint,"[2]; compared to placebo, ITT",30%
same,Reduction of risk of certain primary endpoints,[2]; on top of current standard of care that includes ACEi or ARB therapy,about 25%
same,"Exploratory hard composite of ESKD, renal death and CV death HR",[2]; vs placebo,0.73
same,Composite of CV death and hospitalized heart failure HR,"[2]; vs placebo, ITT",0.69
same,Composite of CV death and hospitalized heart failure risk reduction,"[2]; vs placebo, ITT",31%
same,"Composite of doubling of serum creatinine, ESKD, and renal death HR","[2]; vs placebo, ITT",0.66
same,"Composite of doubling of serum creatinine, ESKD, and renal death risk reduction","[2]; vs placebo, ITT",34%
same,Hospitalization for heart failure HR,"[2]; vs placebo, ITT",0.61
same,Hospitalization for heart failure risk reduction,"[2]; vs placebo, ITT",39%
same,MACE HR,"[2]; vs placebo, ITT",0.80
same,MACE risk reduction,"[2]; vs placebo, ITT",20%
